Experimental data from ChEMBL document CHEMBL3991601, “The target landscape of clinical kinase drugs” (Science, 2017).
The source made the active and inactive calls.

Experiments:
[1] = target: T1, Serine/threonine-protein kinase PLK4 (Homo sapiens, UniProt O00444)
T1 sequence (O00444 whole entry): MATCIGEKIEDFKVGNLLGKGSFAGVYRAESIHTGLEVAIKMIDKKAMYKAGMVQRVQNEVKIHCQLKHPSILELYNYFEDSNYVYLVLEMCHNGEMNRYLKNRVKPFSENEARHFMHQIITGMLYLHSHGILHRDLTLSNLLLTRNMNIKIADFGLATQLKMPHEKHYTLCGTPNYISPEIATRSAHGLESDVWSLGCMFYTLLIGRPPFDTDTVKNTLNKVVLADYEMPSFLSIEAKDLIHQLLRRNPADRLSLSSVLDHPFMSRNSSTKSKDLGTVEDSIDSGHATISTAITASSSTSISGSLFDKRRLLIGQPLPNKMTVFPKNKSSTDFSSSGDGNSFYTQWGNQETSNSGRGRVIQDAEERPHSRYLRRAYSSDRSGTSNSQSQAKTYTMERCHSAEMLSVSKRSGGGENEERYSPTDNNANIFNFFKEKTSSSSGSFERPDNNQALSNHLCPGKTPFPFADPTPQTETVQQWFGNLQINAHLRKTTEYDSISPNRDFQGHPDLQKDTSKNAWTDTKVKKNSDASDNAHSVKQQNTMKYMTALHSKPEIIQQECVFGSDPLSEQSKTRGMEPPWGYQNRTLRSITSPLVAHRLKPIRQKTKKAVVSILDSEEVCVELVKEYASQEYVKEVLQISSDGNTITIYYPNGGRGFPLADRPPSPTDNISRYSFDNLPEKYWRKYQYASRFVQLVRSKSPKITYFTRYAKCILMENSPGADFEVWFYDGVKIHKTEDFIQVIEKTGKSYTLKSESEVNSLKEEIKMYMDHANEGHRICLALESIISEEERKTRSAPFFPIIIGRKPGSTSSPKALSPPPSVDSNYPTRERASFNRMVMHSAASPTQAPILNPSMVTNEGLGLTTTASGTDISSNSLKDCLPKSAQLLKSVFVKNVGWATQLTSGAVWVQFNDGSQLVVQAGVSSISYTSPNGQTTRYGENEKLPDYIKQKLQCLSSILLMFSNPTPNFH

Ephrin type-A receptor 5 = Ephrin type-A receptor 5 (Homo sapiens, UniProt P54756)
Ephrin type-A receptor 5, sequence (P54756 whole entry): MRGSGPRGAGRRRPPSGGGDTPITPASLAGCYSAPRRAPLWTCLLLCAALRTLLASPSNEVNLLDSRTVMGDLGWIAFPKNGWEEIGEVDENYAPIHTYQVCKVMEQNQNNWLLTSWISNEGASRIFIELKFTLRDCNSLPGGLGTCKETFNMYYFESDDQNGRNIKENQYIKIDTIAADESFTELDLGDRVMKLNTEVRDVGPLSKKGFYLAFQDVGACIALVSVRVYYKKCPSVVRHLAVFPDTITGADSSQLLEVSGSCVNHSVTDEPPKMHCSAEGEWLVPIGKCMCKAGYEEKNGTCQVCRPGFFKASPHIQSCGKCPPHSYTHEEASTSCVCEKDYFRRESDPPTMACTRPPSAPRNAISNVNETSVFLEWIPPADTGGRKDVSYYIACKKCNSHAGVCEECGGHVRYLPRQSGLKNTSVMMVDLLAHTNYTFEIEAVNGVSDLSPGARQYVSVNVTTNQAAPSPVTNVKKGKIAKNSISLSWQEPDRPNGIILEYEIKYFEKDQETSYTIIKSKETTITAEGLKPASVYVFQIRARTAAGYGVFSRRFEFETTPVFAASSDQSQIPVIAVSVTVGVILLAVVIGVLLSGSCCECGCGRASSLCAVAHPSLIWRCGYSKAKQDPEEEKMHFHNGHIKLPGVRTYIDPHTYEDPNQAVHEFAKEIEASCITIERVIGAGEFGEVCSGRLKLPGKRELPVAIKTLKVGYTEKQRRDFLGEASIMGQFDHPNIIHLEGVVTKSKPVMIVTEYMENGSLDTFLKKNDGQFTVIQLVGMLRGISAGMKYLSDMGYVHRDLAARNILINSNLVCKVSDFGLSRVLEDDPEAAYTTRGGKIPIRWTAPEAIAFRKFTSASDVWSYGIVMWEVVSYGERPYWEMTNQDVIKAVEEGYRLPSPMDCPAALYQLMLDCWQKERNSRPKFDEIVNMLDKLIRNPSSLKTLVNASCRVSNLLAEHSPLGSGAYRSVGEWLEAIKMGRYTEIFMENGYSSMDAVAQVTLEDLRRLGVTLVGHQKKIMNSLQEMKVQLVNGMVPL

[2] = target: T2, Probable ATP-dependent RNA helicase DDX6 (Homo sapiens, UniProt P26196)
T2 sequence (P26196 whole entry): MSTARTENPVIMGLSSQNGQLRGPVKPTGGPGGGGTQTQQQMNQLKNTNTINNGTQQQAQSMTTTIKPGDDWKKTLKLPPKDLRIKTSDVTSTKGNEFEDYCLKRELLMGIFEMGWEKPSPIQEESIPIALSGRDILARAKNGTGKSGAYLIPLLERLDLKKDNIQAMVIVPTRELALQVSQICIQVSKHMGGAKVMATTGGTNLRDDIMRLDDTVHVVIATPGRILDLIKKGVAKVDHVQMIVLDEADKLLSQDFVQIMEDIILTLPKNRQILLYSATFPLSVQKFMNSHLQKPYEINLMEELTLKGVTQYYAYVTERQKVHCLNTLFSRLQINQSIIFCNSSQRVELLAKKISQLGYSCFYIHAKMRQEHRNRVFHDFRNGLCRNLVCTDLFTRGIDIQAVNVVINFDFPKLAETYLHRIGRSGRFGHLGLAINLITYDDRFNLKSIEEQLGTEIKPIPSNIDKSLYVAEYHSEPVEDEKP

Myosin-10 = Myosin-10 (Homo sapiens, UniProt P35580)
[3] = target: Mitogen-activated protein kinase 9 (Homo sapiens, UniProt P45984)
Mitogen-activated protein kinase 9, sequence (P45984 whole entry): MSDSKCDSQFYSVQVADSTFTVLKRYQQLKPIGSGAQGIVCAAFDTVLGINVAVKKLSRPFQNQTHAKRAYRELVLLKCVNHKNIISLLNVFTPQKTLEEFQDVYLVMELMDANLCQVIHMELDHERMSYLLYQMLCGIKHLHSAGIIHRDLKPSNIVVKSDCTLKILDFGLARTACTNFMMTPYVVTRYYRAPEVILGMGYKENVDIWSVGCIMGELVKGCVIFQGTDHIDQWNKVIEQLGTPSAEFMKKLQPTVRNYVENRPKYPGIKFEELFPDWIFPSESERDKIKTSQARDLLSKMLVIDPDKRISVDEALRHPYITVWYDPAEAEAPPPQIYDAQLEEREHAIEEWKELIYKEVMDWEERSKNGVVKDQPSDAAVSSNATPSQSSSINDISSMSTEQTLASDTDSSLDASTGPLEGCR

GTP-binding protein 4 = GTP-binding protein 4 (Homo sapiens, UniProt Q9BZE4)
DNA topoisomerase 2-beta = DNA topoisomerase 2-beta (Homo sapiens, UniProt Q02880)
[4] = target: Atypical kinase COQ8A, mitochondrial (Homo sapiens, UniProt Q8NI60)
Atypical kinase COQ8A, mitochondrial, sequence (Q8NI60 whole entry): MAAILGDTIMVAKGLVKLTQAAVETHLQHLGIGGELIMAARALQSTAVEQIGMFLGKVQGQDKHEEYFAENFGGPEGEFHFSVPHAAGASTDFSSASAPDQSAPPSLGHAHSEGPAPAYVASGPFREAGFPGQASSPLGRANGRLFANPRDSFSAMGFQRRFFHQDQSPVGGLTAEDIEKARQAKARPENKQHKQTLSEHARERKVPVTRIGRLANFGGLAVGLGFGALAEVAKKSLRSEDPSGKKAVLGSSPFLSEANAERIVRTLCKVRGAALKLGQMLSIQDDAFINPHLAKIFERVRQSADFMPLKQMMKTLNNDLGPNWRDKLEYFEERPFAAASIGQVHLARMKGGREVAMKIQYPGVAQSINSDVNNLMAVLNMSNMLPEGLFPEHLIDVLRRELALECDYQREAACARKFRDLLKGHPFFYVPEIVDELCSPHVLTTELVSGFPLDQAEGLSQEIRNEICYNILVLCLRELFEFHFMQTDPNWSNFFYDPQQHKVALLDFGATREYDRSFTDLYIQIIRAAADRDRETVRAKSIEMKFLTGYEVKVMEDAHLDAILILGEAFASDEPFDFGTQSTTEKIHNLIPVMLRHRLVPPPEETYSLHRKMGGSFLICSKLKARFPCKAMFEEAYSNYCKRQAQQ

[5] = target: T3, Serine/threonine-protein kinase ULK3 (Homo sapiens, UniProt Q6PHR2)
T3 sequence (Q6PHR2 whole entry): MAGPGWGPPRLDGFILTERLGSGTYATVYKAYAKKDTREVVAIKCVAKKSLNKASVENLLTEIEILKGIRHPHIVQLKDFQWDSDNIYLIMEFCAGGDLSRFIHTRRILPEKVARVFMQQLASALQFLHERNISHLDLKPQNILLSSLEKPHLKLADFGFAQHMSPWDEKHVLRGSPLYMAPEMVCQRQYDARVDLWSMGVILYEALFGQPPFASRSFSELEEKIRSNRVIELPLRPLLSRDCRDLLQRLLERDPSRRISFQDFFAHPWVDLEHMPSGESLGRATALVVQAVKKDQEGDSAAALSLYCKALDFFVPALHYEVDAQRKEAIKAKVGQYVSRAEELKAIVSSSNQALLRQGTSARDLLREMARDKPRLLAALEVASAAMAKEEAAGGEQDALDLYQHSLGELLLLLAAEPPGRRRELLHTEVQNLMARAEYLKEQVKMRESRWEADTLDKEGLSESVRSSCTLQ

[6] = target: T4, Tyrosine--tRNA ligase, cytoplasmic (Homo sapiens, UniProt P54577)
T4 sequence (P54577 whole entry): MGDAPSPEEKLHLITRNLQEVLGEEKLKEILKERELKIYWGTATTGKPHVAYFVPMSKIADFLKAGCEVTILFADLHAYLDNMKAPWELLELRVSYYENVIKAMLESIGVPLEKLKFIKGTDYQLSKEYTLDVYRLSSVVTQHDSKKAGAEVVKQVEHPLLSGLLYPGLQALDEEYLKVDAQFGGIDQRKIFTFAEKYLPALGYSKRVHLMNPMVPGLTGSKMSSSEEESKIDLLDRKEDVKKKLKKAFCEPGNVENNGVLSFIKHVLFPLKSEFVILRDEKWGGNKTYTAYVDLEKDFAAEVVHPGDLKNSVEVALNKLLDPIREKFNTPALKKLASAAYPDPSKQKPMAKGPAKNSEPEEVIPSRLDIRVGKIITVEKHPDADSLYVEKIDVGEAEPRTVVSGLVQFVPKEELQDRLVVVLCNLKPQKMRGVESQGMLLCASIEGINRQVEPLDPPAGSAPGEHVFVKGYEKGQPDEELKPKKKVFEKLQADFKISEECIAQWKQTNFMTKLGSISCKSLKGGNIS

[7] = target: BMP-2-inducible protein kinase (Homo sapiens, UniProt Q9NSY1)
BMP-2-inducible protein kinase, sequence (Q9NSY1 whole entry): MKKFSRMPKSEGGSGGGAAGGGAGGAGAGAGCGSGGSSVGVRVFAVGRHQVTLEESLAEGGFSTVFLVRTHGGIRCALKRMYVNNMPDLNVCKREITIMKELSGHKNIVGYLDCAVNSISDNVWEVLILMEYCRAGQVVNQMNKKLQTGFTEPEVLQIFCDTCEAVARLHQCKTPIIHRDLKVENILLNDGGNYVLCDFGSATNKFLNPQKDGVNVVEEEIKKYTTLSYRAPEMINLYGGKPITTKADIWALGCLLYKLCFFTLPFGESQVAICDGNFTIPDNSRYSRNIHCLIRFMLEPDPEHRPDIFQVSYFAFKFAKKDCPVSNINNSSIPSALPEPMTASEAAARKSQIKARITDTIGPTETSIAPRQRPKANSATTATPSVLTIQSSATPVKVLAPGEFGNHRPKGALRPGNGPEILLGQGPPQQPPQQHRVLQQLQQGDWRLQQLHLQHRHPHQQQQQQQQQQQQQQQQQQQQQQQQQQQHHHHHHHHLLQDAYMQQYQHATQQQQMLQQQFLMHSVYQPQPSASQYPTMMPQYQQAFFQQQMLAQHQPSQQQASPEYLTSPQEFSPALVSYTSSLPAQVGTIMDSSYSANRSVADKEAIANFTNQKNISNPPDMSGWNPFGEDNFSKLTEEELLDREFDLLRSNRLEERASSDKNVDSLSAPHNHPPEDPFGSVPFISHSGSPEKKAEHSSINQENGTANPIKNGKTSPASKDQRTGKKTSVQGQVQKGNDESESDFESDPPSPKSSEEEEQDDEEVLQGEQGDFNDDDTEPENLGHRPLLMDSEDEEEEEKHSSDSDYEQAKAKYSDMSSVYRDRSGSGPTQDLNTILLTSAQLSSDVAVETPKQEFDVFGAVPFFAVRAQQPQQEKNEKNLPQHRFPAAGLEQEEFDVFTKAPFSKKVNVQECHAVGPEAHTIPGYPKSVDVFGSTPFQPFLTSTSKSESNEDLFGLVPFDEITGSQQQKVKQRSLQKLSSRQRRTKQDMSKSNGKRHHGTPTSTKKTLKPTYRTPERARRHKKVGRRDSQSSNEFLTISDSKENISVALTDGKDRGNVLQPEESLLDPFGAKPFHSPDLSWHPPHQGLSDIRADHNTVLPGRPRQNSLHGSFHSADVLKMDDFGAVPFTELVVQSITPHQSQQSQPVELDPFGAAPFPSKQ

[8] = target: Serine/threonine-protein kinase MRCK beta (Homo sapiens, UniProt Q9Y5S2)
Serine/threonine-protein kinase MRCK beta, sequence (Q9Y5S2 whole entry): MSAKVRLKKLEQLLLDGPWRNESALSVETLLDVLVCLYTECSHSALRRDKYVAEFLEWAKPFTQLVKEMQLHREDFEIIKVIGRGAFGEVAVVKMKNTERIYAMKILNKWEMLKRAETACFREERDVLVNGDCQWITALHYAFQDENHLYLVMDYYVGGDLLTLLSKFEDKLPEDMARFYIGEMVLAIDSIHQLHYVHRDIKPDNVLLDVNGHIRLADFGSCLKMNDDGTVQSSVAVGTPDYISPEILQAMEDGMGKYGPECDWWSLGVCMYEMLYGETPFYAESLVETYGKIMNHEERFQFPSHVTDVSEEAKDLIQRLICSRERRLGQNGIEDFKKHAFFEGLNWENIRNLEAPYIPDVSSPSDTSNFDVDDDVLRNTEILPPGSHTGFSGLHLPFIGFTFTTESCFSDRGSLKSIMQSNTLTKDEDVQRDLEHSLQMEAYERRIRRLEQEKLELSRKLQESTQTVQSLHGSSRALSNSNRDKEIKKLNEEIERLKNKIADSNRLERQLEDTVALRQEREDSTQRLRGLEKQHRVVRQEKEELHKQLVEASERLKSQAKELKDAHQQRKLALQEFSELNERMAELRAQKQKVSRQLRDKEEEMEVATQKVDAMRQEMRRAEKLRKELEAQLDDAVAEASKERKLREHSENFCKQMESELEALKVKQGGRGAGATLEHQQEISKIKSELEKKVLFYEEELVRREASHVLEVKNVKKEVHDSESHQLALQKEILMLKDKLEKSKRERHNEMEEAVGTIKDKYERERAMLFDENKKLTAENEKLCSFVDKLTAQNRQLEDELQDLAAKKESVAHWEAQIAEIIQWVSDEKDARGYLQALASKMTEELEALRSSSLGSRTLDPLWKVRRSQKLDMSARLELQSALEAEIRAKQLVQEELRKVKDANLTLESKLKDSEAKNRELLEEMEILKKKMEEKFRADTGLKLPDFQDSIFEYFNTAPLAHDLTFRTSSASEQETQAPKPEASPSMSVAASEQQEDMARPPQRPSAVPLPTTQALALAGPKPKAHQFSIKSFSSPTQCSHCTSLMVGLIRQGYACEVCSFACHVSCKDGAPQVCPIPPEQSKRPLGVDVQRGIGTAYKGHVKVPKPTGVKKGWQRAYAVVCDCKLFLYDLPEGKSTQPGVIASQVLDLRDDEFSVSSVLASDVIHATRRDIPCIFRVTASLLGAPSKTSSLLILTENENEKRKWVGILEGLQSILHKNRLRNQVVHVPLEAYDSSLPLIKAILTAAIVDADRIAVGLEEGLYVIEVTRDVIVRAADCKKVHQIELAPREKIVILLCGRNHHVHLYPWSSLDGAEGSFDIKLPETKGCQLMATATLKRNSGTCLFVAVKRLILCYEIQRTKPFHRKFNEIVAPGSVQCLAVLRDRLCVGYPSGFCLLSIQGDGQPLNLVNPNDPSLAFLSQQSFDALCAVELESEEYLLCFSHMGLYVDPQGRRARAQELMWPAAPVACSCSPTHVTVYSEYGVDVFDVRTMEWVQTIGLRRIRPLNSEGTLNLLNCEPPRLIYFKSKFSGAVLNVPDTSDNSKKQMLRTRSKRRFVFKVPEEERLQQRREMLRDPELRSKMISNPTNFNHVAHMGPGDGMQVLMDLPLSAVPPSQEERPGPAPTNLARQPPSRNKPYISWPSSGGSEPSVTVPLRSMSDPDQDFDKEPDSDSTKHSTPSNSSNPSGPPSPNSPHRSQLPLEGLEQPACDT
Further: in the data inactive means no Kd found up to 30 µM.

| SMILES | Kd [1] | Kd (Ephrin type-A receptor 5) | Kd [2] | Kd (Myosin-10) | Kd [3] | Kd (GTP-binding protein 4) | Kd (DNA topoisomerase 2-beta) | Kd [4] | Kd [5] | Kd [6] | Kd [7] | Kd [8] |
| --- | --- | --- | --- | --- | --- | --- | --- | --- | --- | --- | --- | --- |
| O=C(Cc1ccc(-c2ccc(OCCN3CCOCC3)cc2)cn1)NCc1ccccc1 [TIRBANIBULIN] | > 30 µM (inactive) | > 30 µM (inactive) | > 30 µM (inactive) | > 30 µM (inactive) | > 30 µM (inactive) | > 30 µM (inactive) | > 30 µM (inactive) | > 30 µM (inactive) | > 30 µM (inactive) | > 30 µM (inactive) | > 30 µM (inactive) | > 30 µM (inactive) |
| Cc1cc(Nc2ncnc3ccc(NC4=NC(C)(C)CO4)cc23)ccc1Oc1ccn2ncnc2c1 [TUCATINIB] | > 30 µM (inactive) | > 30 µM (inactive) | > 30 µM (inactive) | > 30 µM (inactive) | > 30 µM (inactive) | > 30 µM (inactive) | > 30 µM (inactive) | > 30 µM (inactive) | > 30 µM (inactive) | > 30 µM (inactive) | > 30 µM (inactive) | > 30 µM (inactive) |
| Cn1ncc(Cl)c1-c1cc(C(=O)N[C@H](CN)Cc2ccc(F)c(F)c2)oc1Cl [UPROSERTIB] | > 30 µM (inactive) | > 30 µM (inactive) | > 30 µM (inactive) | > 30 µM (inactive) | > 30 µM (inactive) | > 30 µM (inactive) | > 30 µM (inactive) | > 30 µM (inactive) | > 30 µM (inactive) | > 30 µM (inactive) | > 30 µM (inactive) | > 30 µM (inactive) |
| C[C@@H](N)c1ccc(C(=O)Nc2ccnc3[nH]ccc23)cc1 [Y-39983] | > 30 µM (inactive) | > 30 µM (inactive) | > 30 µM (inactive) | > 30 µM (inactive) | > 30 µM (inactive) | > 30 µM (inactive) | > 30 µM (inactive) | > 30 µM (inactive) | > 30 µM (inactive) | > 30 µM (inactive) | 0.179 µM (active) | 0.034 µM (active) |
| CN1C/C=C/CCOc2cccc(c2)-c2ccnc(n2)Nc2cccc(c2)C1 [ZOTIRACICLIB] | > 30 µM (inactive) | > 30 µM (inactive) | > 30 µM (inactive) | > 30 µM (inactive) | 2.31 µM (active) | > 30 µM (inactive) | > 30 µM (inactive) | > 30 µM (inactive) | > 30 µM (inactive) | > 30 µM (inactive) | > 30 µM (inactive) | 46.9 µM |
